Test results reported in patent publication US20260109694A1, “HETEROCYCLIC COMPOUNDS AND USES THEREOF” (Kumquat Biosciences Inc., priority 2023, published 2026).

Key:
PTP1B = target: T1, PTP1B (Homo sapiens, UniProt P18031); test: Phosphatase activity assay (DiFMUP substrate); assay type: biochemical; conditions: value bin printed in column head
T1 sequence (P18031 1-435): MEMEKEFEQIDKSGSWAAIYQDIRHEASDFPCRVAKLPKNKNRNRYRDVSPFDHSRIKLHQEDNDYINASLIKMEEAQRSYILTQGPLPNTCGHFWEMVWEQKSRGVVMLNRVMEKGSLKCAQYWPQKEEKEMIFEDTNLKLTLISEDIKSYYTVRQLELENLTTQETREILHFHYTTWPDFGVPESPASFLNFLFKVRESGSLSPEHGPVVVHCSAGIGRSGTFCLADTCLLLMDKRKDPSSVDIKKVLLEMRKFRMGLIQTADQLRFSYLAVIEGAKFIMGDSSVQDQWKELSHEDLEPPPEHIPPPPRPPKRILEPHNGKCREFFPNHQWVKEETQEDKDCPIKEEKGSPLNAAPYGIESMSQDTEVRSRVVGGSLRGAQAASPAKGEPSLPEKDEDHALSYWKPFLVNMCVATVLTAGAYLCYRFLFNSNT
Description: (§1) The selectivity and potency of a small molecule PTPN2 inhibitor as provided herein against one or more protein tyrosine phosphatase (PTP) enzymes, and specifically against PTPN2, is assessed in various ways. The one or more PTP enzymes comprise Mycobacterium protein tyrosine phosphatase A (mPTPA), Mycobacterium protein tyrosine phosphatase B (mPTPB), PTPN1 (i.e., PTP1B), PTPN2 (i.e., TC-PTP), PTPN22 (i.e., LYP), SHP-1, SHP-2, FAP-1, Meg2, HePTP, Laforin, VHX, VHR, LMWPTP, Cdc14A, LAR, CD45, PTPRG, a fragment thereof, a variant thereof, and a combination thereof. Selectivity and potency of a small molecule PTPN2 inhibitor is evaluated using a PTP activity inhibition assay. The assay is performed using a buffer comprising 50 mM HEPES buffer pH 7.5, 150 mM NaCl, 0.5 mM EDTA, 1 mM DTT, 0.001% Tween-20.
(§2) The assay is performed using a phosphated substrate, e.g., 10 mM 6,8-Difluoro-4-Methylumbelliferyl Phosphate (DIFMUP) that is stored at −20° C. Alternatively or in addition to, the assay is performed using other phosphated substrate (e.g., fluorescein diphosphate). Each PTP enzyme is diluted in the assay buffer
(§3) The assay can be carried out at room temperature in multiplate format, e.g., using 384 well plates. A small molecule PTPN2 inhibitor dissolved in DMSO at one of 10 concentrations from a serial dilution or DMSO alone for control is added to each well. A mixture of the assay buffer comprising PTP enzyme (e.g., 0.025 ng/ul PTPN2) is added to each well and mixed for approximately 2 minutes. The reaction is initiated by adding DiFMUP diluted in the assay buffer to a final concentration of approximately 45 µM DiFMUP in PTPN2 assay. For each PTP enzyme, DiFMUP is added at the Km (Michaelis constant) of the enzyme that had been independently determined. The phosphatase activity of the PTP enzyme is assessed by monitoring appearance of a fluorescent product (6,8-difluoro-7-hydroxyl-4-coumarin (DiFMU) from DiFMUP) continuously for about 15 to 30 minutes, using the INFINITE M1000Pro plate reader (Tecan) with excitation at 360 nm and emission at 450 nm (cutoff filter at 435 nm) for DiFMU. Each assay is performed at least in duplicate. The rate (e.g., the initial rate) of DiFMU formation is plotted against the concentration of the small molecule PTPN2 inhibitor, and the data is fitted (e.g., using a 4-parameter equation) to determine the inflection point of the fit as the IC50 of the small molecule PTPN2 inhibitor for a specific enzyme. Utilizing this assay, the ability of the compounds in Table 1 to inhibit PTPN2 and PTP1B has been assessed. Table 3 summarizes the IC50 values.

PTPN2 = target: T2, PTPN2 (Homo sapiens, UniProt P17706); test: Phosphatase activity assay (DiFMUP substrate); assay type: biochemical; conditions: value bin printed in column head
T2 sequence (P17706 1-415): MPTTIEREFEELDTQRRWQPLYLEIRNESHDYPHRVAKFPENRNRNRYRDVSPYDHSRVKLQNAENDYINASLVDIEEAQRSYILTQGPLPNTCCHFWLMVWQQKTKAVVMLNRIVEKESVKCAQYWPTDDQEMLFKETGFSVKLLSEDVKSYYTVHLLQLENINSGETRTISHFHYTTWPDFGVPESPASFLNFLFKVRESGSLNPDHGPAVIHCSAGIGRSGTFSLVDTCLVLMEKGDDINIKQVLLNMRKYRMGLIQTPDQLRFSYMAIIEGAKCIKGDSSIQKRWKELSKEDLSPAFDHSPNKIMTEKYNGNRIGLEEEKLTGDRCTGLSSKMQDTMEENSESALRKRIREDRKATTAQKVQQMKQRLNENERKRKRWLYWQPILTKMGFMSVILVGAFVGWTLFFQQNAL
Description: as §1, §2, §3

CC(C)C(=O)OC(OC(=O)N1CC(c2ccc(O)c(N3CC(=O)NS3(=O)=O)c2F)=C[C@H]1CCC1CCC1)C(C)C (stereo partly drawn) [Compound 150, 1-(isobutyryloxy)-2-methylpropyl (2R)-2-(2-cyclobutylethyl)-4-(3-(1,1-dioxido-4-oxo-1,2,5-thiadiazolidin-2-yl)-2-fluoro-4-hydroxyphenyl)-2,5-dihydro-1H-pyrrole-1-carboxylate]
IC50 (PTP1B): ≤ 1000 nM
IC50 (PTPN2): ≤ 1000 nM

O=C1CN(c2c(O)ccc(C(=O)NC3CCNC3)c2F)S(=O)(=O)N1 (centres unmarked) [Compound 136, 3-(1,1-dioxido-4-oxo-1,2,5-thiadiazolidin-2-yl)-2-fluoro-4-hydroxy-N-(pyrrolidin-3-yl)benzamide]
IC50 (PTP1B): > 1000 nM
IC50 (PTPN2): > 1000 nM

N#CCC1C=C(c2ccc(O)c(N3CC(=O)NS3(=O)=O)c2F)CN1 (centres unmarked) [Compound 107, 2-(4-(3-(1,1-dioxido-4-oxo-1,2,5-thiadiazolidin-2-yl)-2-fluoro-4-hydroxyphenyl)-2,5-dihydro-1H-pyrrol-2-yl)acetonitrile]
IC50 (PTP1B): ≤ 1000 nM
IC50 (PTPN2): ≤ 1000 nM

O=C1CN(c2c(O)ccc(CC3CCCNC3)c2F)S(=O)(=O)N1 (centres unmarked) [Compound 122, 5-(2-fluoro-6-hydroxy-3-(piperidin-3-ylmethyl)phenyl)-1,2,5-thiadiazolidin-3-one 1,1-dioxide]
IC50 (PTP1B): ≤ 1000 nM
IC50 (PTPN2): ≤ 1000 nM

O=C1CN(c2c(O)ccc(C3=CCC(CO)C3)c2F)S(=O)(=O)N1 (centres unmarked) [Compound 135, 5-(2-fluoro-6-hydroxy-3-(4-(hydroxymethyl)cyclopent-1-en-1-yl)phenyl)-1,2,5-thiadiazolidin-3-one 1,1-dioxide]
IC50 (PTP1B): ≤ 1000 nM
IC50 (PTPN2): ≤ 1000 nM

CC1(CCC2C=C(c3ccc(O)c(N4CC(=O)NS4(=O)=O)c3F)CN2)CC1 (centres unmarked) [Compound 104, 5-(2-fluoro-6-hydroxy-3-(5-(2-(1-methylcyclopropyl)ethyl)-2,5-dihydro-1H-pyrrol-3-yl)phenyl)-1,2,5-thiadiazolidin-3-one 1,1-dioxide]
IC50 (PTP1B): ≤ 1000 nM
IC50 (PTPN2): ≤ 1000 nM

CC(C)C(=O)O[C@@H](C)OC(=O)N1CC(c2ccc(O)c(N3CC(=O)NS3(=O)=O)c2F)=C[C@@H]1CCC1CC1 [Compound 151, (R)-1-(isobutyryloxy)ethyl (S)-2-(2-cyclopropylethyl)-4-(3-(1,1-dioxido-4-oxo-1,2,5-thiadiazolidin-2-yl)-2-fluoro-4-hydroxyphenyl)-2,5-dihydro-1H-pyrrole-1-carboxylate]
IC50 (PTP1B): ≤ 1000 nM
IC50 (PTPN2): ≤ 1000 nM

O=C1CN(c2c(O)ccc(C3=CC(CO)CC3)c2F)S(=O)(=O)N1 (centres unmarked) [Compound 131, 5-(2-fluoro-6-hydroxy-3-(3-(hydroxymethyl)cyclopent-1-en-1-yl)phenyl)-1,2,5-thiadiazolidin-3-one 1,1-dioxide]
IC50 (PTP1B): ≤ 1000 nM
IC50 (PTPN2): ≤ 1000 nM

O=C1CN(c2c(O)ccc(C3=CC(CCC(F)(F)F)NC3)c2F)S(=O)(=O)N1 (centres unmarked) [Compound 133, 5-(2-fluoro-6-hydroxy-3-(5-(3,3,3-trifluoropropyl)-2,5-dihydro-1H-pyrrol-3-yl)phenyl)-1,2,5-thiadiazolidin-3-one 1,1-dioxide]
IC50 (PTP1B): ≤ 1000 nM
IC50 (PTPN2): ≤ 1000 nM

O=C1CN(c2c(O)cc(CC3CCNC3)cc2F)S(=O)(=O)N1 (centres unmarked) [Compound 140, 5-(2-fluoro-6-hydroxy-4-(pyrrolidin-3-ylmethyl)phenyl)-1,2,5-thiadiazolidin-3-one 1,1-dioxide]
IC50 (PTP1B): ≤ 1000 nM
IC50 (PTPN2): ≤ 1000 nM

CC(C)C(=O)O[C@H](C)OC(=O)N1CC(c2ccc(O)c(N3CC(=O)NS3(=O)=O)c2F)=C[C@H]1CCC1CC1 [Compound 161, (S)-1-(isobutyryloxy)ethyl (R)-2-(2-cyclopropylethyl)-4-(3-(1,1-dioxido-4-oxo-1,2,5-thiadiazolidin-2-yl)-2-fluoro-4-hydroxyphenyl)-2,5-dihydro-1H-pyrrole-1-carboxylate]
IC50 (PTP1B): ≤ 1000 nM
IC50 (PTPN2): ≤ 1000 nM

O=C1CN(c2c(O)ccc(CC3CNC3)c2F)S(=O)(=O)N1 [Compound 103, 5-(3-(azetidin-3-ylmethyl)-2-fluoro-6-hydroxyphenyl)-1,2,5-thiadiazolidin-3-one 1,1-dioxide]
IC50 (PTP1B): ≤ 1000 nM
IC50 (PTPN2): ≤ 1000 nM

CC(C)CC[C@H]1C=C(c2ccc(O)c(N3CC(=O)NS3(=O)=O)c2F)CN1 [Compound 145, (S)-5-(2-fluoro-6-hydroxy-3-(5-isopentyl-2,5-dihydro-1H-pyrrol-3-yl)phenyl)-1,2,5-thiadiazolidin-3-one 1,1-dioxide]
IC50 (PTP1B): ≤ 1000 nM
IC50 (PTPN2): ≤ 1000 nM

O=C1CN(c2c(O)ccc(C3=C[C@@H](C=CC4CC4)NC3)c2F)S(=O)(=O)N1 (single isomer, unassigned) [Compound 102, (R,E)-5-(3-(5-(2-cyclopropylvinyl)-2,5-dihydro-1H-pyrrol-3-yl)-2-fluoro-6-hydroxyphenyl)-1,2,5-thiadiazolidin-3-one 1,1-dioxide or (R,Z)-5-(3-(5-(2-cyclopropylvinyl)-2,5-dihydro-1H-pyrrol-3-yl)-2-fluoro-6-hydroxyphenyl)-1,2,5-thiadiazolidin-3-one 1,1-dioxide]
IC50 (PTP1B): ≤ 1000 nM
IC50 (PTPN2): ≤ 1000 nM

CC(OC(=O)C1CCCC1)OC(=O)N1CC(c2ccc(O)c(N3CC(=O)NS3(=O)=O)c2F)=C[C@H]1CCC1CCC1 (stereo partly drawn) [Compound 163, 1-((cyclopentanecarbonyl)oxy)ethyl (2R)-2-(2-cyclobutylethyl)-4-(3-(1,1-dioxido-4-oxo-1,2,5-thiadiazolidin-2-yl)-2-fluoro-4-hydroxyphenyl)-2,5-dihydro-1H-pyrrole-1-carboxylate]
IC50 (PTP1B): ≤ 1000 nM
IC50 (PTPN2): ≤ 1000 nM

O=C1CN(c2c(O)ccc(C3=C[C@H](CCC4CCC4)NC3)c2F)S(=O)(=O)N1 [Compound 134, (S)-5-(3-(5-(2-cyclobutylethyl)-2,5-dihydro-1H-pyrrol-3-yl)-2-fluoro-6-hydroxyphenyl)-1,2,5-thiadiazolidin-3-one 1,1-dioxide]
IC50 (PTP1B): ≤ 1000 nM
IC50 (PTPN2): ≤ 1000 nM

CC(C)CC[C@H]1C=C(c2ccc(O)c(N3CC(=O)NS3(=O)=O)c2F)CN1C(=O)O[C@H](C)OC(=O)C(C)C [Compound 148, (R)-1-(isobutyryloxy)ethyl (S)-4-(3-(1,1-dioxido-4-oxo-1,2,5-thiadiazolidin-2-yl)-2-fluoro-4-hydroxyphenyl)-2-isopentyl-2,5-dihydro-1H-pyrrole-1-carboxylate]
IC50 (PTP1B): ≤ 1000 nM
IC50 (PTPN2): ≤ 1000 nM

O=C1CN(c2c(O)cc(C3=CC(CCC4CC4)NC3)cc2F)S(=O)(=O)N1 (centres unmarked) [Compound 105, 5-(4-(5-(2-cyclopropylethyl)-2,5-dihydro-1H-pyrrol-3-yl)-2-fluoro-6-hydroxyphenyl)-1,2,5-thiadiazolidin-3-one 1,1-dioxide]
IC50 (PTP1B): ≤ 1000 nM
IC50 (PTPN2): ≤ 1000 nM

O=C1CN(c2c(O)ccc(C3=CC(CC4CCC4)NC3)c2F)S(=O)(=O)N1 (centres unmarked) [Compound 126, 5-(3-(5-(cyclobutylmethyl)-2,5-dihydro-1H-pyrrol-3-yl)-2-fluoro-6-hydroxyphenyl)-1,2,5-thiadiazolidin-3-one 1,1-dioxide]
IC50 (PTP1B): ≤ 1000 nM
IC50 (PTPN2): ≤ 1000 nM
